Test results: US7452549B2, “Synergistic antioxidant combination of delta tocols and polyphenols” (Nestec S.A., priority 2001, dated 2008)

Tested on: LDL fraction
Assay: Oxidation of LDL in vitro (Cu2+-initiated, conjugated diene absorbance at 234 nm, lag phase)
Format: biochemical, human
Conditions: for synergistic antioxidant properties in combination with TRF or purified δ-tocol: non-polyphenolic antioxidants
Procedure: Oxidation of LDL In Vitro Plasma was obtained from the blood of healthy male and female volunteers and was frozen. […] Tubes were then centrifuged at 400 000 g at 15° C. for 2 hours. The top fraction (chylomicrons+VLDL) was removed. […] After centrifugation at 400 000 g at 15° C. for 2 hours, the LDL fraction floating on the top was collected. […] The fractions were supplemented with ethanolic solutions containing various extracts or with the same volume of pure ethanol (control). Oxidation was initiated by adding freshly-prepared CuSO4 solution (25 μmol/l final concentration) at 37° C. The kinetics of the oxidation of lipoprotein was determined by continuously monitoring the change in absorbance at 234 nm (at 37° C.) on a UV/VIS spectrophotometer, which correlates with the increase in conjugated diene absorbance. […] The time required for the formation of diene is defined as the lag phase. The longer the lag phase the better the protection of LDL against oxidation. […] Concentration-response curves for the LDL oxidation assay were plotted separately for each of the tocol preparations, and for the water-soluble antioxidant preparations (see FIGS. 1 to 5). In each experiment, the tocotrienol content of the tocol preparations (TRF) was standardised to 0.05 or 0.1 μg/ml.

Compound | synergistic effect with polyphenols in in vitro LDL oxidation studies | synergistic antioxidant properties in combination with TRF or purified δ-tocol | relative performance of δ-tocotrienol vs δ-tocopherol in in vitro LDL oxidation studies
Cc1cc(O)cc2c1O[C@](C)(CCC[C@H](C)CCC[C@H](C)CCCC(C)C)CC2 [δ-tocopherol] | remarkable synergistic effects |  | 
O=C1O[C@H]([C@@H](O)CO)C(O)=C1O [ascorbic acid] |  | not to have synergistic antioxidant properties | 
CC(C)=CCC/C(C)=C/CC/C(C)=C/CC[C@]1(C)CCc2cc(O)cc(C)c2O1 [δ-tocotrienol] | remarkable synergistic effects |  | performs marginally better
O=C(O)CCCCC1CCSS1 (stereo not drawn) [α-lipoic acid] |  | same lack of synergy | 
CC(=O)N[C@@H](CS)C(=O)O [N-acetylcysteine] |  | same lack of synergy | 
